Assay results published in PubChem BioAssay (NCI).
“And” between values parts separate entries of the source, which are not always exact repeats. Equal values may be shown once.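 A five-concentration, 48-hour dose response in 96-well plates underlies each endpoint, interpolated linearly between surrounding concentrations. GI50 = concentration required for 50% inhibition of growth. TGI is the concentration that stops growth completely.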

Tests used:
Assay in all cases: growth of human tumour cells (NCI), 48 h
PC-3 prostate = tested on: PC-3 prostate
A549 NSCLC = tested on: A549 NSCLC
HCT-15 colon = tested on: HCT-15 colon
SF-268 CNS = tested on: SF-268 CNS
LOX IMVI melanoma = tested on: LOX IMVI melanoma
MDA-MB-231 breast = tested on: MDA-MB-231 breast
U251 CNS = tested on: U251 CNS
HT29 colon = tested on: HT29 colon
M14 melanoma = tested on: M14 melanoma

## O=C(Nc1ccncc1)C(=O)c1cn(S(=O)(=O)c2cccc(F)c2)c2ccccc12
PC-3 prostate
  GI50: 5690 nM
  TGI: > 100000 nM
A549 NSCLC
  GI50: 13200 nM
  TGI: > 100000 nM
HCT-15 colon
  GI50: 2740 nM
  TGI: > 100000 nM
SF-268 CNS
  GI50: 10900 nM
  TGI: > 100000 nM
LOX IMVI melanoma
  GI50: 3510 nM
  TGI: > 100000 nM
MDA-MB-231 breast
  GI50: 10800 nM
  TGI: > 100000 nM
U251 CNS
  GI50: 4380 nM
  TGI: > 100000 nM
HT29 colon
  GI50: 1770 nM
  TGI: 14900 nM

## Cc1cc(-c2cnn3c(NCC4CC(C)(O)C4)cc(Oc4cccnc4)nc23)ccc1C(=O)NC1CC1 (configuration not stated)
A549 NSCLC
  GI50: 3490 nM
  TGI: > 100000 nM
HCT-15 colon
  GI50: 706 nM
  TGI: > 100000 nM
SF-268 CNS
  GI50: 8720 nM
  TGI: > 100000 nM
LOX IMVI melanoma
  GI50: 395 nM
  TGI: > 100000 nM
MDA-MB-231 breast
  GI50: 3390 nM
  TGI: > 100000 nM
M14 melanoma
  GI50: 1440 nM
  TGI: > 100000 nM
U251 CNS
  GI50: 4180 nM
  TGI: > 100000 nM

## C=C(C[C@](O)(C(=O)/C=C/c1ccc(Cl)cc1)C(=O)OC)c1ccccc1
PC-3 prostate
  GI50: 2700 nM
  TGI: 9040 nM
A549 NSCLC
  GI50: 6630 nM
  TGI: 21800 nM
HCT-15 colon
  GI50: 1450 nM
  TGI: 3520 nM
SF-268 CNS
  GI50: 2550 nM
  TGI: 8130 nM
LOX IMVI melanoma
  GI50: 719 nM
  TGI: 2240 nM
M14 melanoma
  GI50: 2980 nM
  TGI: 11300 nM
U251 CNS
  GI50: 1850 nM
  TGI: 3740 nM
HT29 colon
  GI50: 1900 nM
  TGI: 4650 nM

## O=C1c2ccccc2C(=O)N1CCc1ncc[nH]1
PC-3 prostate
  TGI: > 100000 nM
A549 NSCLC
  TGI: > 100000 nM
HCT-15 colon
  TGI: > 100000 nM
SF-268 CNS
  TGI: > 100000 nM
LOX IMVI melanoma
  TGI: > 100000 nM
M14 melanoma
  TGI: > 100000 nM
HT29 colon
  TGI: > 100000 nM

## COc1ccc2c(c1)CCCN2c1c2ccccc2nc2ccccc12
PC-3 prostate
  GI50: 354 nM
  TGI: > 100000 nM
A549 NSCLC
  GI50: 418 nM
  TGI: > 100000 nM
HCT-15 colon
  GI50: 314 nM
  TGI: 25600 nM
SF-268 CNS
  GI50: 933 nM
  TGI: > 100000 nM
LOX IMVI melanoma
  GI50: 505 nM
  TGI: 12100 nM
MDA-MB-231 breast
  GI50: 665 nM
  TGI: > 100000 nM
U251 CNS
  GI50: 379 nM
  TGI: > 100000 nM
HT29 colon
  GI50: 360 nM
  TGI: > 100000 nM

## Cc1ccc(C(=O)N(CCCN)C(c2oc3cc(Cl)ccc3c(=O)c2Cc2ccccc2)C(C)C)cc1 (configuration not stated)
PC-3 prostate
  GI50: < 10 nM
  TGI: 2030 nM
A549 NSCLC
  GI50: < 10 nM
  TGI: 1540 nM
HCT-15 colon
  GI50: < 10 nM
  TGI: 1570 nM
SF-268 CNS
  GI50: < 10 nM
  TGI: 1690 nM
LOX IMVI melanoma
  GI50: < 40.2 nM
  TGI: 1980 nM
MDA-MB-231 breast
  GI50: < 10 nM
U251 CNS
  GI50: < 10 nM
  TGI: 1370 nM
HT29 colon
  GI50: < 10 nM
  TGI: 437 nM

## CCCCCCCC(=O)OCC/C=C/C1OC1C1OC(=O)/C=C\C=C\c2nc(oc2C)/C=C(/C)CCC2OC2C1OC(=O)NC(C)=O (configuration not stated)
PC-3 prostate
  GI50: 27.2 nM
  TGI: 1840 nM
A549 NSCLC
  GI50: 26 nM
  TGI: 2640 nM
HCT-15 colon
  GI50: 55.8 nM
  TGI: 8880 nM
SF-268 CNS
  GI50: 40.1 nM
  TGI: 1740 nM
LOX IMVI melanoma
  GI50: 37.2 nM
  TGI: 648 nM
MDA-MB-231 breast
  GI50: 62.5 nM
  TGI: 6380 nM
U251 CNS
  GI50: 49.7 nM
  TGI: 3110 nM
HT29 colon
  GI50: 39.7 nM
  TGI: 1120 nM

## O=C(O)CCSC(=O)Nc1ccc([N+](=O)[O-])cc1
A549 NSCLC
  TGI: > 100000 nM
HCT-15 colon
  TGI: > 100000 nM
SF-268 CNS
  TGI: > 100000 nM
LOX IMVI melanoma
  TGI: > 100000 nM
M14 melanoma
  TGI: > 100000 nM
U251 CNS
  TGI: > 100000 nM
HT29 colon
  TGI: > 100000 nM

## CCCCCCCCn1ccc2cc(NC(=O)Cn3cc(CN4CCCC4)nn3)ccc21
A549 NSCLC
  GI50: 1830 nM
  TGI: 3630 nM
HCT-15 colon
  GI50: 1840 nM
  TGI: 3790 nM
SF-268 CNS
  GI50: 1780 nM
  TGI: 3570 nM
LOX IMVI melanoma
  GI50: 1620 nM
  TGI: 3010 nM
MDA-MB-231 breast
  GI50: 1840 nM
  TGI: 3490 nM
M14 melanoma
  GI50: 1790 nM
  TGI: 3350 nM
U251 CNS
  GI50: 1700 nM
  TGI: 3160 nM
HT29 colon
  GI50: 1970 nM
  TGI: 4090 nM

## COc1ccc2nc3c(C(=O)NCCN(C)C)cccc3nc2c1
A549 NSCLC
  TGI: > 100000 nM
HCT-15 colon
  TGI: 16600 nM
SF-268 CNS
  TGI: 48500 nM
LOX IMVI melanoma
  TGI: 17900 nM
M14 melanoma
  TGI: 19500 nM
U251 CNS
  TGI: 29500 nM
HT29 colon
  TGI: 28800 nM

## CC(=O)O[C@H]1C(=O)[C@@]2(C)C(C(OC(=O)c3ccccc3)[C@]3(O)CC(OC(=O)[C@H](OC(=O)CCC(=O)O)C(NC(=O)c4ccccc4)c4ccccc4)C(C)=C1C3(C)C)C1(OC(C)=O)COC1C[C@@H]2O (some centres not stated)
PC-3 prostate
  TGI: 51.2 nM
A549 NSCLC
  TGI: > 100000 nM
HCT-15 colon
  TGI: > 100000 nM
SF-268 CNS
  TGI: > 100000 nM
LOX IMVI melanoma
  TGI: > 100000 nM
MDA-MB-231 breast
  GI50: < 17.1 nM and 48.6 nM
M14 melanoma
  GI50: < 11.1 nM and 22.4 nM
  TGI: 41200 nM and > 100000 nM
U251 CNS
  TGI: > 100000 nM

## O=C(Nc1ccc(-c2nc(N3CCOCC3)c3cccn3n2)cc1)Nc1cccnc1
PC-3 prostate
  GI50: 51.2 nM
  TGI: 2270 nM
A549 NSCLC
  GI50: 244 nM
  TGI: > 100000 nM
HCT-15 colon
  GI50: 143 nM
  TGI: > 100000 nM
SF-268 CNS
  GI50: 248 nM
  TGI: 87600 nM
U251 CNS
  GI50: 180 nM
  TGI: > 100000 nM
HT29 colon
  GI50: 300 nM
  TGI: > 100000 nM

## CCC[CH2][Sn]1([CH2]CCC)[O]C(=O)CN=Cc2c(ccc3ccccc23)[O]1
A549 NSCLC
  GI50: 1740 nM
  TGI: 3400 nM
HCT-15 colon
  GI50: 491 nM
  TGI: 1750 nM
SF-268 CNS
  GI50: 351 nM
  TGI: 1180 nM
LOX IMVI melanoma
  GI50: 242 nM
  TGI: 827 nM
M14 melanoma
  GI50: 367 nM
  TGI: 1340 nM
U251 CNS
  GI50: 351 nM
  TGI: 1200 nM
HT29 colon
  GI50: 1080 nM
  TGI: 2360 nM

## CCOC(=O)/C(C#N)=C/c1[nH]c(C(=O)OCc2ccccc2)c(C)c1C
A549 NSCLC
  TGI: > 100000 nM
HCT-15 colon
  TGI: > 100000 nM
SF-268 CNS
  TGI: > 100000 nM
LOX IMVI melanoma
  TGI: > 100000 nM
M14 melanoma
  TGI: > 100000 nM
U251 CNS
  TGI: > 100000 nM
HT29 colon
  TGI: > 100000 nM
